The values that follow come from patent US20020049299A1, “Synthetic soil-extract materials and medicaments for hemorrhagic fever viruses based thereon” (priority 1997, published 2002).

In brackets after ≈: the same amount, converted by molar mass.

Type in all cases: cell-based
For test [1], the system named is Punta Toro A hemorrhagic fever virus type Adames. The test is described as follows: Punta Toro A virus cytoprotection, inhibition of CPE. The conditions noted are these: LLC-MK2, read-out: CPE EC50.
Test [2] shares this test system. The experiment in a line: Punta Toro A virus time-of-addition cytoprotection, NR method. The procedure:
(§1) The second cytoprotection assay protocol, employed to validate the CPE results, was as follows: in the neutral red dye uptake version of the antiviral test protocol described immediately above, the same 96-well microplates were utilized after the CPE had been read. Neutral red dye was then added to the medium: cells not damaged by virus take up a greater amount of dye, which can be read on a computerized micro plate autoreader (the method is described in detail by McManus: Appl. Environ. Microbiol. 1976, 31, 35-38).
(§2) Punta Toro A hemorrhagic fever virus type Adames was obtained from the Center for Disease Control (CDC). The test cell line consisted of adult Rhesus monkey kidney cells (LLC-MK2).
The two protocols used to determine the cytoprotection properties of the humate materials were as described in Example 20, except that drugs were added at specific times to the test wells containing virus.

Test [3] shares this test system. The experiment in a line: Punta Toro A virus cytoprotection, neutral red dye uptake. The conditions noted are these: Punta Toro A virus in LLC-MK2 cells. The procedure:
as §1, §2
The two protocols used to determine the cytoprotection properties of the humate materials were as described in Example 20.

The test system is the same in test [4]. The test is described as follows: Punta Toro A virus time-of-addition cytoprotection, CPE method.
For test [5], the system named is Pichinde hemorrhagic fever virus 4763.
The test system is the same in test [6]. The test is described as follows: microbe, parasite or virus in culture. The conditions noted are these: BSC-1, read-out: CPE EC50.

By EC50 is commonly meant the midpoint of the concentration-response curve. With `NC(=O)c1ncn([C@@H]2O[C@H](CO)[C@@H](O)[C@H]2O)n1` [Ribavirin], the EC50 came out at 5 µg/mL (≈ 20.5 µM) in test [1]; 3 µg/mL (≈ 12.3 µM) in test [2] (0 h, read-out: EC50, NR method, time of addition 0 hours); 5 µg/mL (≈ 20.5 µM) in test [2] (1 h, read-out: EC50, NR method, time of addition 1 hours); 6 µg/mL (≈ 24.6 µM) in test [2] (1 h, read-out: EC50, NR method, time of addition −1 hours); 5 µg/mL (≈ 20.5 µM) in test [2] (2 h, read-out: EC50, NR method, time of addition 2 hours); 9 µg/mL (≈ 36.9 µM) in test [2] (4 h, read-out: EC50, NR method, time of addition 4 hours). For the same compound, the EC50 in test [2] (6 h, read-out: EC50, NR method, time of addition 6 hours) worked out at 8 µg/mL (≈ 32.8 µM); in test [2] (8 h, read-out: EC50, NR method, time of addition 8 hours), 10 µg/mL (≈ 40.9 µM); in test [2] (12 h, read-out: EC50, NR method, time of addition 12 hours) it was 12 µg/mL (≈ 49.1 µM); in test [2] (24 h, read-out: EC50, NR method, time of addition 24 hours), 35 µg/mL (≈ 143 µM); in test [4] (0 h, read-out: EC50, CPE method, time of addition 0 hours) it was 4 µg/mL (≈ 16.4 µM); in test [4] (1 h, read-out: EC50, CPE method, time of addition 1 hours), 4 µg/mL (≈ 16.4 µM). Also, the EC50 in test [4] (1 h, read-out: EC50, CPE method, time of addition −1 hours) was found to be 10 µg/mL (≈ 40.9 µM); in test [4] (2 h, read-out: EC50, CPE method, time of addition 2 hours) it was 8 µg/mL (≈ 32.8 µM); in test [4] (4 h, read-out: EC50, CPE method, time of addition 4 hours) it was 4 µg/mL (≈ 16.4 µM); in test [4] (6 h, read-out: EC50, CPE method, time of addition 6 hours), 10 µg/mL (≈ 40.9 µM); in test [4] (8 h, read-out: EC50, CPE method, time of addition 8 hours), 8 µg/mL (≈ 32.8 µM); in test [4] (12 h, read-out: EC50, CPE method, time of addition 12 hours) it was 8 µg/mL (≈ 32.8 µM). In addition, the EC50 in test [4] (24 h, read-out: EC50, CPE method, time of addition 24 hours) was found to be 2 µg/mL (≈ 8.19 µM); in test [6], 0.3 µg/mL (≈ 1.23 µM). The “NR EC99” value is listed as 5 micrograms per milliliter in test [3] and below 1 micrograms per milliliter in test [5].
